Test results as given in patent US20230416248A1, “COMPOUNDS AND USES THEREOF” (Foghorn Therapeutics Inc., priority 2020, published 2023).
Read-outs that look alike come from different tables or passages of the source. Values belong to the compound of their own block, whether it stands above or below them.

Columns and labels:
[1] = Body weight and tolerability in mice engrafted with 92-1 tumors (Example 16); format: in vivo; details: all treatments, once daily oral gavage, 3 weeks, FIG. 8C
Description: Procedure: Nude mice (Envigo) were engrafted subcutaneously in the axillary region with 5×10^6 92-1 uveal melanoma cells in 50% Matrigel. Tumors were grown to a mean of ˜200 mm^3, at which point mice were grouped and dosing was initiated. Mice were dosed once daily by oral gavage with vehicle (20% 2-Hydroxypropyl-[…]) or increasing doses of Compound C. Tumor volumes and body weights were measured over the course of 3 weeks, and doses were adjusted by body weight to achieve the proper dose in terms of mg/kg. At this time, animals were sacrificed, and tumors were dissected and imaged.

[2] = tested on: Uveal melanoma cell lines, 92-1 or MP41; test: 3-day growth inhibition compared with clinical PKC and MEK inhibitors, Compound A (Example 8); format: cell-based; details: FIG. 2A and 2B
Description: Procedure: Uveal melanoma cell lines, 92-1 or MP41, were plated in 96 well plates in the presence of growth media (see Table 5). […] Cells were incubated at 37 degrees Celsius for 3 days. After three days of treatment, cell growth was measured with Cell-titer glow (Promega), and luminescence was read on an Envision plate reader (Perkin Elmer).

[3] = tested on: Uveal melanoma cell lines (92-1, MP41, MP38, MP46) and Non-small cell lung cancer cells (NCIH1299); test: 3-day cell growth, Cell-titer glow (Example 12); format: cell-based; details: FIG. 5, 3 days, 0 to 10 micromolar
Description: Procedure: Uveal melanoma cell lines (92-1, MP41, MP38, MP46) and Non-small cell lung cancer cells (NCIH1299) were plated into 96 well plates with growth media (see Table 6). BRG1/BRM ATPase inhibitor, compound 67, was dissolved in DMSO and added to the cells in a concentration gradient from 0 to 10 micromolar at the time of plating. Cells were incubated at 37° C. for 3 days. After three days of treatment, cell growth was measured with Cell-titer glow (Promega), and luminescence was read on an Envision plate reader (Perkin Elmer).

[4] = tested on: Uveal melanoma cell lines, 92-1 or MP41; test: 3-day growth inhibition compared with clinical PKC and MEK inhibitors, Compound B (Example 13); format: cell-based; details: FIG. 6A and 6B
Description: Procedure: Uveal melanoma cell lines, 92-1 or MP41, were plated in 96 well plates in the presence of growth media (see Table 6). BAF ATPase inhibitor (Compound B), PKC inhibitor (LXS196; MedChemExpress), and MEK Inhibitor (Selumetinib; Selleck Chemicals) were dissolved in DMSO and added to the cells in a concentration gradient from 0 to 10 micromolar at the time of plating. Cells were incubated at 37° C. for 3 days. After three days of treatment, cell growth was measured with Cell-titer glow (Promega), and luminescence was read on an Envision plate reader (Perkin Elmer).

[5] = tested on: parental MP41 cells; test: 7-day growth inhibition assay, parental cells (Example 14); format: cell-based; details: FIG. 7B, 7-day assay
Description: (§1) Procedure: MP41 uveal melanoma cells were made resistant to the PKC inhibitor (LXS196; MedChemExpress), by long-term culture in growth media (see Table 6) containing increasing concentrations of the compound, up to 1 micromolar. After 3 months, sensitivity of the parental MP41 cells and the PKC inhibitor (PKCi)-resistant cells to the PKC inhibitor (LXS196) or the BRG1/BRM ATPase inhibitor (Compound B) was tested in a 7-day growth inhibition assay as described above in Example 9.

[6] = tested on: PKC inhibitor (PKCi)-resistant MP41 uveal melanoma cells; test: 7-day growth inhibition assay, PKC inhibitor-resistant cells (Example 14); format: cell-based
Description: as §1

[7] = biological target: T1, BRG-1 (Homo sapiens, UniProt P51532); test: ATPase catalytic activity of BRG-1, ADP-Glo in vitro biochemical assay; details: 30 nM BRG-1, 400 μM ATP, read-out: BRG1 IC50
T1 construct: made in house; host or cells: High Five insect cells
T1 sequence (P51532 whole entry): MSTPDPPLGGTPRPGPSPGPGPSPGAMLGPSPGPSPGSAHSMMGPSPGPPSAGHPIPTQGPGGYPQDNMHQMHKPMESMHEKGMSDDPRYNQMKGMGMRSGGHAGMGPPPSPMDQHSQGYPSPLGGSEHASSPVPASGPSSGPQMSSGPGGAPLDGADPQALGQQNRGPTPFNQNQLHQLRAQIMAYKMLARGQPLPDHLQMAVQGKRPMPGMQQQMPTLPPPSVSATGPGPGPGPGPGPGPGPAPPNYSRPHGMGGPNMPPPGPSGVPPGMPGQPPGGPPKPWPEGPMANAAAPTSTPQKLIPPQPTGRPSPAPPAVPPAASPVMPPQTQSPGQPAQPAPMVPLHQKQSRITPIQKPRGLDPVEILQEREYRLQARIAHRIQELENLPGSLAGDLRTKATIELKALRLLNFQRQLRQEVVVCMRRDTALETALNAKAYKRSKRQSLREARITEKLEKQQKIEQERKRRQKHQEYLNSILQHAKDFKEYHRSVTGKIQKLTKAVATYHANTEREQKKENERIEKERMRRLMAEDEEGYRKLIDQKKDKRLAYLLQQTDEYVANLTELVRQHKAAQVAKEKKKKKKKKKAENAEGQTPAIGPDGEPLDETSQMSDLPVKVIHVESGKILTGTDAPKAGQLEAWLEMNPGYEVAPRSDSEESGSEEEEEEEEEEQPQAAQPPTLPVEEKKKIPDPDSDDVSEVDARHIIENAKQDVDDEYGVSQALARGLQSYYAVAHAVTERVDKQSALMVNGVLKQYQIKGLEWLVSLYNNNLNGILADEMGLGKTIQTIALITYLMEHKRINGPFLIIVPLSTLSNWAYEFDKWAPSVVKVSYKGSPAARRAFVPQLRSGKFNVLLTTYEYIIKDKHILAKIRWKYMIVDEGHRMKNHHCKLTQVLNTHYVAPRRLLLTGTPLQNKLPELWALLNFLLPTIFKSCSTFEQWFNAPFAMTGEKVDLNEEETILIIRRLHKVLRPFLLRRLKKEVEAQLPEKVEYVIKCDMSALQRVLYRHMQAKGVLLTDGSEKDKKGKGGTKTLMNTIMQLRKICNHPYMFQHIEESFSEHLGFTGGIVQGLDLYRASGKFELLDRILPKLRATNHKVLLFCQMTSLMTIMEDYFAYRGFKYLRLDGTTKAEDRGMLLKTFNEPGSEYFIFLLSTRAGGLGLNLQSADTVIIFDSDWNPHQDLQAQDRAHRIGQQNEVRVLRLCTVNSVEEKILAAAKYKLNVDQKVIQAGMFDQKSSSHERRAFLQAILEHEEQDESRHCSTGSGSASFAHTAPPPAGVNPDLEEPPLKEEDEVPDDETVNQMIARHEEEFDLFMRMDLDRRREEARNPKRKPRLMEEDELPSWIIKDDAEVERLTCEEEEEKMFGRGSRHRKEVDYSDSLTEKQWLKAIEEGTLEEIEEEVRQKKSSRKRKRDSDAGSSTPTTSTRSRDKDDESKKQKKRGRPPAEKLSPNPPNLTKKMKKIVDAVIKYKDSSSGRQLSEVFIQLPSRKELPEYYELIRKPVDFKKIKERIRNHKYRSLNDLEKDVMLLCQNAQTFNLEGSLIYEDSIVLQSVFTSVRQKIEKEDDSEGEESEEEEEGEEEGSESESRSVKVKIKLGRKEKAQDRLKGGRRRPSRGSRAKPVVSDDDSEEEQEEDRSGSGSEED
Method in brief: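 BRG-1 ATPase activity was measured in vitro by ADP-Glo. After the reaction, ADP-Glo Reagent depleted unconsumed ATP (40 min, room temperature), then Kinase Detection Reagent converted product ADP to ATP (60 min, room temperature), and luciferase luminescence was read.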

[8] = biological target: T2, BRM (Homo sapiens, UniProt P51531); test: ATPase catalytic activity of BRM, ADP-Glo in vitro biochemical assay; details: for IC50: 30 nM BRM, 400 μM ATP; for Ratio*: ratio of BRG1 IC50 to BRM IC50
T2 construct: made in house; host or cells: High Five insect cells
T2 sequence (P51531 whole entry): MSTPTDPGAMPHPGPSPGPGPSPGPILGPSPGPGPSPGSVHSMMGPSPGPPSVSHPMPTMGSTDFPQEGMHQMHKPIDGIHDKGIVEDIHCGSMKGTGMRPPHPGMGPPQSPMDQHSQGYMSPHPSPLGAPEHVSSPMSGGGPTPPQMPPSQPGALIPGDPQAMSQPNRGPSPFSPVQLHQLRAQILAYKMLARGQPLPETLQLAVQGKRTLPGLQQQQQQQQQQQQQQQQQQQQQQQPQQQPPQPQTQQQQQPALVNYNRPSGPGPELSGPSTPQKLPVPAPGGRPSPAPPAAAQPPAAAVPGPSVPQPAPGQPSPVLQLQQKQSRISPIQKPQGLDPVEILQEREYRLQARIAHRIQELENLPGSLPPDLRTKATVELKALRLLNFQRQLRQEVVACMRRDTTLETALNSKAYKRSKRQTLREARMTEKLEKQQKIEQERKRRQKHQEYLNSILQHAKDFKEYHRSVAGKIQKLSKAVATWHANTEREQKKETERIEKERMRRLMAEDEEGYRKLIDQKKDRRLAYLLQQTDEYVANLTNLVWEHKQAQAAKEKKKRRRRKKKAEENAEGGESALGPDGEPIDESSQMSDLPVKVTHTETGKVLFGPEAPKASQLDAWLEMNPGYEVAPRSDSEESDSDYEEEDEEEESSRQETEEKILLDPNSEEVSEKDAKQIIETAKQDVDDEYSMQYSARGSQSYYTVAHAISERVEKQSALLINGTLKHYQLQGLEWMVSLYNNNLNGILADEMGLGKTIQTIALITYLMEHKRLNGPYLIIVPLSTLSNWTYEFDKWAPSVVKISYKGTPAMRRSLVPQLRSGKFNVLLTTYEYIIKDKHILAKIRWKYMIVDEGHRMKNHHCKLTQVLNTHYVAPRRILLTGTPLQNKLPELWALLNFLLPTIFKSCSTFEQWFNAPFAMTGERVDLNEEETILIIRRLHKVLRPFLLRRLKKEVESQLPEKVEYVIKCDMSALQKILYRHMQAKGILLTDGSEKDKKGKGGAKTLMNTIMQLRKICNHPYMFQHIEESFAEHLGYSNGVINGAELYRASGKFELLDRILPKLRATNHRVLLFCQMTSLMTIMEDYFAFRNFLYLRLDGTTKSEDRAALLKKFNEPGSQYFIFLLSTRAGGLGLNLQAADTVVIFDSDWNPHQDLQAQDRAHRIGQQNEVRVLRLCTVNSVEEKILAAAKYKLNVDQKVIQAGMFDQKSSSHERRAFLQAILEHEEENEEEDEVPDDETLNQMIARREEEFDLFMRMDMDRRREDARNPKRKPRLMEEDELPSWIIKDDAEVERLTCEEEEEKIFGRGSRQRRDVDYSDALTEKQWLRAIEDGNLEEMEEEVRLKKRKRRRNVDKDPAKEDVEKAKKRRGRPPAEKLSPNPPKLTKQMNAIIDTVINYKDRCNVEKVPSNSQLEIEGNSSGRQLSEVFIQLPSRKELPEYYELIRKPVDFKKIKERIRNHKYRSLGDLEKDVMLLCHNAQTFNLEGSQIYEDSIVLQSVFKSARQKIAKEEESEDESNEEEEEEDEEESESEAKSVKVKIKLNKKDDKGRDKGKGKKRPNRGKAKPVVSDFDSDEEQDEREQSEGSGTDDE
Method in brief: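 Recombinant BRM (30 nM) hydrolysed 400 μM ATP with 20 nM salmon sperm DNA in pH 8 Tris buffer containing 20 mM MgCl2, 50 mM NaCl, 0.1% Tween-20 and 1 mM DTT, 1 h at room temperature. ADP formed was quantified by ADP-Glo luminescence.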

[9] = ATPase catalytic activity, ADP-Glo

SMILES: C[C@@H]1CN(c2cccc(-c3csc(NC(=O)CNC(=O)c4ccn(C(C)(C)C)c4)n3)n2)C[C@H](C)O1 [Compound C, 1-(tert-butyl)-N-(2-((4-(6-(cis-2,6-dimethylmorpholino)pyridin-2-yl)thiazol-2-yl)amino)-2-oxoethyl)-1H-pyrrole-3-carboxamide]
tolerability, body weight [1]: well tolerated with no body weight loss observed

SMILES: CSCC[C@H](NC(=O)c1ccc(N)cc1)C(=O)Nc1nc(-c2cccc(-c3ccncc3)c2)cs1 [Compound A]
onset of inhibition versus the clinical PKC and MEK inhibitors [2]: faster onset of inhibition | growth inhibition of uveal melanoma cells versus the clinical PKC and MEK inhibitors ([2]; 3 days, 0 to 10 micromolar): comparable growth inhibition

SMILES: CSCC[C@H](NC(=O)c1ccn(S(C)(=O)=O)c1)C(=O)Nc1nc(-c2cccc(-c3ccncc3)c2)cs1 [Compound B, (S)-1-(methylsulfonyl)-N-(4-(methylthio)-1-oxo-1-((4-(3-(pyridin-4-yl)phenyl)thiazol-2-yl)amino)butan-2-yl)-1H-pyrrole-3-carboxamide]
growth inhibition in the uveal melanoma cell lines [3]: potent growth inhibition | onset of growth inhibition versus the clinical PKC and MEK inhibitors [4]: faster onset of growth inhibition | growth inhibition of uveal melanoma cells versus the clinical PKC and MEK inhibitors ([4]; 3 days, 0 to 10 micromolar): more potent effects on growth inhibition | growth inhibition of parental cell line [5]: strong growth inhibition | sensitivity of PKCi-resistant cells versus the parental MP41 cells ([6]; FIG. 7B): more sensitive | growth inhibition of PKCi-resistant cell line ([6]; FIG. 7B, 7-day assay): strong growth inhibition

SMILES: CC1(N)CCN(c2cccnc2NC(=O)c2nc(-c3ncccc3C(F)(F)F)cnc2N)CC1 [LXS196, reference compound]
tolerance of PKCi-resistant cells versus the parental MP41 cell line ([6]; FIG. 7A): could tolerate growth at higher concentrations

IC50 [7, 9]: 230 nM | IC50 [8, 9]: 17.1 nM | Ratio* [8]: 13.46
SMILES: COC1(CN(C)c2cccc(-c3ccc4cnc(CNC(=O)c5ccc6c(c5)S(=O)(=O)CCOC6)cc4n3)n2)CC1 [Compound 323]

IC50 [7, 9]: 614 nM | IC50 [8, 9]: 24.8 nM | Ratio* [8]: 24.73
SMILES: CC1CCc2ccc(C(=O)NCc3cc4nc(-c5cccc(N6C[C@@H](C)O[C@@H](C)C6)n5)ccc4cn3)cc2S1(=O)=O (stereo partly shown) [Compound 324]

IC50 ([7]; ADP-Glo ATPase assay): 3620 nM | IC50 ([8]; ADP-Glo ATPase assay): 498 nM | Ratio* (BRG1 IC50 (μM) divided by BRM IC50 (μM)) ([8]; selectivity ratio BRG1 IC50 / BRM IC50): 7.27
SMILES: O=C(NCc1cc2nc(-c3cncc(C(F)(F)F)n3)ccc2cn1)c1ccc2c(c1)S(=O)(=O)CCOC2 [Compound 209]

IC50 [7, 9]: 1040 nM | IC50 [8, 9]: 42.7 nM | Ratio* [8]: 24.28
SMILES: O=C(NCc1cc2nc(N3CCCc4ccc(C5CCCO5)nc43)ccc2cn1)c1ccc2c(c1)S(=O)(=O)CCOC2 (stereo not shown) [Compound 659]
